# Data taken from paper PMC3755730 (The Journal of neuroscience : the official journal of the …, 2013).
# pIC50: −log10 of the molar value.
# Key:
# [1] = biological target: N2B (GluN2B), in N1/N2B (B-type) NMDA receptor (Mus musculus, UniProt Q01097); assay: whole-cell patch clamp, EPSC dose-inhibition in N2A knockout neurons; format: cell-based
# [2] = biological target: N2A (GluN2A), in N1/N2A (A-type) NMDA receptor (Mus musculus, UniProt P35436); assay: whole-cell patch clamp, EPSC dose-inhibition in N2B knockout neurons; format: cell-based
# N2A (GluN2A), in N1/N2A (A-type) NMDA receptor, sequence (P35436 23-1464, other chains not shown): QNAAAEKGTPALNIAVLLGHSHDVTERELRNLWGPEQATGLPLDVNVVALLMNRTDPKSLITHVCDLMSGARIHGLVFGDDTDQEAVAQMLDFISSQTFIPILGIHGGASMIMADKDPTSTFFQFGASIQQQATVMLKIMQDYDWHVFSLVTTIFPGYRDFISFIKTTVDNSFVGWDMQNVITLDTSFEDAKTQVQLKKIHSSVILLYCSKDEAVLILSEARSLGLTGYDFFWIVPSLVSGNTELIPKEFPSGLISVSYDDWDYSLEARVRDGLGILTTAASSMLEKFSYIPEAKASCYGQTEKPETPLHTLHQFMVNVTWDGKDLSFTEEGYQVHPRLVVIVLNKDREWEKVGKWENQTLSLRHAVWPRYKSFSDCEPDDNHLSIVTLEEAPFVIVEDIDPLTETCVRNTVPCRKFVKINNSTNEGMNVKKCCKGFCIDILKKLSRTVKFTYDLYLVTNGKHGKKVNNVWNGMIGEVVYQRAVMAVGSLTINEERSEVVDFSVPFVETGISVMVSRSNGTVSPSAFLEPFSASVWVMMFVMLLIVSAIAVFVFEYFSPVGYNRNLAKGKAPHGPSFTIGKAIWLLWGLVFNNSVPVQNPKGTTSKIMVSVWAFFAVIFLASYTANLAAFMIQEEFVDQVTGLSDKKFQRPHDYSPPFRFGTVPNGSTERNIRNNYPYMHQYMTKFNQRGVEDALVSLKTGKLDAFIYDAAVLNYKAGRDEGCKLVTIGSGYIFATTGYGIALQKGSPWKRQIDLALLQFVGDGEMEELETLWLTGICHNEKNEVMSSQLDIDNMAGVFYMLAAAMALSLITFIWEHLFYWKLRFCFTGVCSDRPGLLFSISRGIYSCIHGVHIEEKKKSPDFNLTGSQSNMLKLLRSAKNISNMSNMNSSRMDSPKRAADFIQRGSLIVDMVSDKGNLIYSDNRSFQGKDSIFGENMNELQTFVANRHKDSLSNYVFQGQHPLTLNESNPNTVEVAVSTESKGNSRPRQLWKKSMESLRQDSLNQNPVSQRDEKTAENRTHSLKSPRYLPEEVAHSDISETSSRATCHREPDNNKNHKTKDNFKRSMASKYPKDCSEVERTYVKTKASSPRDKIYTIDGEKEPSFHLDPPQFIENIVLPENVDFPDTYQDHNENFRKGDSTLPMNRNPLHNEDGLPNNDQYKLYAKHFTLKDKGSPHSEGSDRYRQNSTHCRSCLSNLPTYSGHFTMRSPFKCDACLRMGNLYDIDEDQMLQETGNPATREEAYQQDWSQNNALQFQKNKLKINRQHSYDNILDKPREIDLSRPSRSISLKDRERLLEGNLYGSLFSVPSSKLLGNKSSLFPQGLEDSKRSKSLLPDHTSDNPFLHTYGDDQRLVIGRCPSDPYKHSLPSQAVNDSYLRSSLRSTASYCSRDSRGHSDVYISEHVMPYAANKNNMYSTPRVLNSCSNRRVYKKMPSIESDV
# N2B (GluN2B), in N1/N2B (B-type) NMDA receptor, sequence (Q01097 27-1482, other chains not shown): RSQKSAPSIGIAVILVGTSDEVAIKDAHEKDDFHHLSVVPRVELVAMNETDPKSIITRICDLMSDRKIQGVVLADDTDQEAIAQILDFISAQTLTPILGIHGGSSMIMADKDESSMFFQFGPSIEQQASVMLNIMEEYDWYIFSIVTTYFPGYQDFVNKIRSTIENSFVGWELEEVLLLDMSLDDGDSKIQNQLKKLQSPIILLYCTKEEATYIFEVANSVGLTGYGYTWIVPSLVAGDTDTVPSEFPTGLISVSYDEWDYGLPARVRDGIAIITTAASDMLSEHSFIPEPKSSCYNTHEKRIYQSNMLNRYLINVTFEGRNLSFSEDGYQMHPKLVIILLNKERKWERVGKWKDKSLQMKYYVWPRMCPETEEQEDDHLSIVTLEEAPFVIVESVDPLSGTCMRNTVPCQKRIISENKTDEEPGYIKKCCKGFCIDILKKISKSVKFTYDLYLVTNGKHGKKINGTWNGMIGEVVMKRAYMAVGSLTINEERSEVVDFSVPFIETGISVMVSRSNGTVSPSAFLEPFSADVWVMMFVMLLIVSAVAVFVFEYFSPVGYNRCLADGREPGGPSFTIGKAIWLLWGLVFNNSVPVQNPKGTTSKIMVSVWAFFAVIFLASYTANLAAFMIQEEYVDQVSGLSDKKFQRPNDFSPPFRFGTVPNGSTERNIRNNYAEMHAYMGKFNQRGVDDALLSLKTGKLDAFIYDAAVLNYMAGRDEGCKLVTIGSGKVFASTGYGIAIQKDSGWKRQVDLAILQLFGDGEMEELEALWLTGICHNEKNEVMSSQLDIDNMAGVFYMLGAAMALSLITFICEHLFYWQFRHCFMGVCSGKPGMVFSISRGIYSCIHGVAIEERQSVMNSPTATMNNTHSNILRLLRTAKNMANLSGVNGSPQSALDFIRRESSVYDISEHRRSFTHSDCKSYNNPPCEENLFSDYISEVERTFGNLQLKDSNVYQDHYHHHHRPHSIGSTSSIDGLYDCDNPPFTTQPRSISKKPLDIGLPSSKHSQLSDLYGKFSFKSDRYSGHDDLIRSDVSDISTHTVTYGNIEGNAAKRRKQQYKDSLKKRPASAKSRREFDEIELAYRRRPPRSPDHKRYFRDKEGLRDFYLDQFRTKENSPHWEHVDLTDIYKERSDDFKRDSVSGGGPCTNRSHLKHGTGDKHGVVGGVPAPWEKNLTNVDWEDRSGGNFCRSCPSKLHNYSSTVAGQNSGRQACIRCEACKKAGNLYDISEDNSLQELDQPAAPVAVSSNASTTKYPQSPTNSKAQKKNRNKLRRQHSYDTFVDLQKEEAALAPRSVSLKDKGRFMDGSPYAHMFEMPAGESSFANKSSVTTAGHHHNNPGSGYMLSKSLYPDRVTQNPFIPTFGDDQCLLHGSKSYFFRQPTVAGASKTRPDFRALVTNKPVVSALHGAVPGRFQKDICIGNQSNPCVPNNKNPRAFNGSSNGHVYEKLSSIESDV
smiles,measurement,setting,value
C[C@H](N[C@@H](c1cccc2[nH]c(=O)c(=O)[nH]c12)P(=O)(O)O)c1ccc(Br)cc1 [NVP-AAM077],pIC50,[1],6.92
same,pIC50,[2],8.00
